We go through 27 compounds from patent US10604489B2, “Compounds for the treatment of pain” (priority 2018, dated 2020).

The Ki is the dissociation constant of the complex between target and ligand, obtained from inhibition or displacement. Read a high Ki as lower affinity. A word on the EC50: it is the concentration giving half of the maximal effect.

For one experiment, the target named is μ-receptor (Homo sapiens (Human), UniProt P35372). The experiment is described as follows: Receptor binding, competitive displacement of [3H]DAMGO. The settings on record: 0.25 nM [3H]DAMGO, CHO cell membrane protein, 60 min at 25° C. The method, then:
The Ki (binding affinity) for μ-receptor was determined with a previously described method using a competitive displacement assay (Neumeyer et al., J. Med. Chem., v. 46, p. 5162-5170, 2003). Membrane protein from CHO (Chinese Hamster Ovarian) cells that stably expressed one type of the cloned human opioid receptor were incubated with 12 different concentrations of the compound in the presence of 0.25 nM [3H]DAMGO, 0.2 nM [3H]naltrindole or 1 nM [3H]U69,593 in a final volume of 1 mL of 50 mM Tris-HCl, pH 7.5 at 25° C. Incubation times of 60 min were used for [3H]DAMGO and [3H]U69,593. Because of a slower association of [3H]naltrindole with the receptor, a 3 h incubation was used with this radioligand. Samples incubated with [3H]naltrindole also contained 10 mM MgCl2 and 0.5 mM phenylmethylsulfonyl fluoride. Nonspecific binding was measured by inclusion of 10 μM naloxone. The binding was terminated by filtering the samples through Schleicher & Schuell No. 32 glass fiber filters using a Brandel 48-well cell harvester. The filters were subsequently washed three times with 3 mL of cold 50 mM Tris-HCl, pH 7.5, and were counted in 2 mL Ecoscint A scintillation fluid. For [3H]naltrindole and [3H]U69,593 binding, the filters were soaked in 0.1% polyethylenimine for at least 60 min before use. IC50 values will be calculated by least squares fit to a logarithm-probit analysis. Ki values of unlabelled compounds were calculated from the equation Ki=(IC50)/1+S where S=(concentration of radioligand)/(Kd of radioligand) (Cheng and Prusoff, Biochemical Pharmacology, v. 22, p. 3099-3108, 1973).
In general terms: Loss of bound radioactivity is the signal in a displacement assay; it reports binding, not function.

The target in another experiment is human μ opioid receptor (Homo sapiens (Human), UniProt P35372). The experiment is described as follows: Functional activity ([35S]GTPγS binding). The class given is biochemical. As to conditions: [35S]GTPγS 0.080 nM, CHO cell membranes, 60 min at 30° C., filtration. The procedure:
The [^35S]GTPγS assay measures the functional properties of a compound by quantifying the level of G-protein activation following agonist binding in studies using stably transfected cells, and is considered to be a measure of the efficacy of a compound. Membranes from CHO (Chinese Hamster Ovary) cells that stably expressed one type of the cloned human opioid receptor human were used in the experiments. In a final volume of 0.5 mL, 12 different concentrations of each test compound were incubated with 7.5 μg of CHO cell membranes that stably expressed the human p opioid receptor. The assay buffer consisted of 50 mM Tris-HCl, pH 7.4, 3 mM MgCl2, 0.2 mM EGTA, 3 μM GDP, and 100 mM NaCl. The final concentration of [35S]GTPγS was 0.080 nM. Nonspecific binding was measured by inclusion of 10 μM GTPγS. Binding was initiated by the addition of the membranes. After an incubation of 60 min at 30° C., the samples were filtered through Schleicher & Schuell No. 32 glass fiber filters. The filters were washed three times with cold 50 mM Tris-HCl, pH 7.5, and were counted in 2 mL of Ecoscint scintillation fluid.

Where a name gives a salt, the structure may show the parent alone.

As to `COC1(c2ccc(F)c(C(N)=O)c2)C2CCCC1CN(C)C2` [Compound 41, 2-fluoro-5-((1R,5S,9r)-9-methoxy-3-methyl-3-azabicyclo[3.3.1]nonan-9-yl)benzamide hydrochloride], the Ki on μ-receptor was > 5 nM.
At μ-receptor, `COC1(c2ccnc(C(N)=O)c2)C2CCCC1CN([C@H]1C[C@H](C)C1)C2` (stereo partly drawn) [Compound 131, 4-((1R,5S,9R)-9-methoxy-3-((1r,3R)-3-methylcyclobutyl)-3-azabicyclo[3.3.1]nonan-9-yl)picolinamide hydrochloride] had a Ki of 1 to 5 nM. The same compound had an EC50 on human μ opioid receptor of 10 to 75 nM.
As to `COC1(c2ccnc(C(N)=O)c2)C2CCCC1CN(C1CC3(CCOCC3)C1)C2` [Compound 13, 4-((1R,5S,9r)-9-methoxy-3-(7-oxaspiro[3.5]nonan-2-yl)-3-azabicyclo[3.3.1]nonan-9-yl)picolinamide hydrochloride], on μ-receptor, the Ki was < 1 nM. Moreover, the EC50 on human μ opioid receptor is < 10 nM.
Turning to `COC1(c2cccc(C(N)=O)c2)C2CCCC1CN(C[C@@H]1C[C@@H]3C[C@@H]3C1)C2` (stereo partly drawn) [Compound 156, 3-((1R,5S,9R)-3-((1R,3r,5S)-bicyclo[3.1.0]hexan-3-ylmethyl)-9-methoxy-3-azabicyclo[3.3.1]nonan-9-yl)benzamide hydrochloride], the Ki at μ-receptor is < 1 nM. Moreover, the EC50 on human μ opioid receptor was < 10 nM.
Turning to `COC1(c2ccnc(C(N)=O)c2)C2CCCC1CN(Cc1cccc(=O)[nH]1)C2` [Compound 120, 4-((1R,5S,9r)-34(6-hydroxypyridin-2-yl)methyl)-9-methoxy-3-azabicyclo[3.3.1]nonan-9-yl)picolinamide hydrochloride], the inhibition constant (Ki) at μ-receptor was > 5 nM.
`COC1(c2ccnc(C(N)=O)c2)C2CCCC1CN(C13CC(C1)C3)C2` [Compound 103, 4-((1R,5S,9r)-3-(bicyclo[1.1.1]pentan-1-yl)-9-methoxy-3-azabicyclo[3.3.1]nonan-9-yl)picolinamide hydrochloride]: the Ki at μ-receptor lay in the range of 1 to 5 nM. Moreover, at human μ opioid receptor, the EC50 was > 75 nM.
For `COC1(c2ccnc(C(N)=O)c2)C2CCCC1CN(C[C@@H]1CCCO1)C2` (single isomer, unassigned) [Compound 135, hydrochloride], in that order: 1 to 5 nM and 10 to 75 nM.
For `COC1(c2cccc(C(N)=O)c2)C2CCCC1CN(CC1(O)Cc3ccccc3C1)C2` [Compound 58, 3-((1R,5S,9r)-3-((2-hydroxy-2,3-dihydro-1H-inden-2-yl)methyl)-9-methoxy-3-azabicyclo[3.3.1]nonan-9-yl)benzamide hydrochloride], in that order: < 1 nM and < 10 nM.
Consider `COC1(c2ccc(C(N)=O)s2)C2CCCC1CN(CCN1CCNC1=O)C2` [Compound 95, 5-((1R,5S,9r)-9-methoxy-3-(2-(2-oxoimidazolidin-1-yl)ethyl)-3-azabicyclo[3.3.1]nonan-9-yl)thiophene-2-carboxamide (S)-2-hydroxysuccinate], for which the Ki on μ-receptor fell in the range of 1 to 5 nM. The EC50 on human μ opioid receptor was > 75 nM.
For `COC1(c2ccnc(C(N)=O)c2)C2CCCC1CN(C13CC(c4ccccc4)(C1)C3)C2` [Compound 106, 4-((1R,5S,9r)-9-methoxy-3-(3-phenylbicyclo[1.1.1]pentan-1-yl)-3-azabicyclo[3.3.1]nonan-9-yl)picolinamide hydrochloride], in that order: < 1 nM and < 10 nM.
At μ-receptor, `COC1(c2cc(C(N)=O)ccn2)C2CCCC1CN(C)C2` [Compound 44, 2-((1R,5S,9r)-9-methoxy-3-methyl-3-azabicyclo[3.3.1]nonan-9-yl)isonicotinamide hydrochloride] showed a Ki of 1 to 5 nM.
Same read-out and setting: as for `COC1(c2ccnc(C(N)=O)c2)C2CCCC1CN([C@H]1CC[C@H]1c1ccccc1)C2` (stereo partly drawn) [Compound 116, 4-((1R,5S,9s)-9-methoxy-3-((1S,2S)-2-phenylcyclobutyl)-3-azabicyclo[3.3.1]nonan-9-yl)picolinamide (S)-2-hydroxysuccinate], the figure is > 5 nM; as for `COC1(c2ccnc(C(N)=O)c2)C2CCCC1CN(Cc1cnnn1C)C2` [Compound 125, 4-((1R,5S,9r)-9-methoxy-3-((1-methyl-1H-1,2,3-triazol-5-yl)methyl)-3-azabicyclo[3.3.1]nonan-9-yl)picolinamide hydrochloride], > 5 nM.
Regarding `COC1(c2ccnc(C(N)=O)c2)C2CCCC1CN(Cc1cc3ccccc3[nH]1)C2` [Compound 119, 4-((1R,5S,9r)-3-((1H-indol-2-yl)methyl)-9-methoxy-3-azabicyclo[3.3.1]nonan-9-yl)picolinamide (S)-2-hydroxysuccinate], the EC50 at human μ opioid receptor was < 10 nM.
With `COC1(c2ccnc(C(N)=O)c2)C2CCCC1CN(CC(C)(C)C)C2` [Compound 105, 4-((1R,5S,9r)-9-methoxy-3-neopentyl-3-azabicyclo[3.3.1]nonan-9-yl)picolinamide hydrochloride], at μ-receptor, the Ki is > 5 nM.
Take `COC1(c2ccnc(C(N)=O)c2)C2CCCC1CN(CCS(C)(=O)=O)C2` [Compound 8, 4-((1R,5S,9r)-9-methoxy-3-(2-(methylsufonyl)ethyl)-3-azabicyclo[3.3.1]nonan-9-yl)picolinamide hydrochloride]: the Ki on μ-receptor is > 5 nM.
The same measure, in the same setting: for `COC1(c2ccnc(C(N)=O)c2)C2CCCC1CN([C@@H]1CC[C@@H]1c1ccccc1)C2` (stereo partly drawn) [Compound 110, 4-((1R,5S,9R)-9-methoxy-3-((1R,2R)-2-phenylcyclobutyl)-3-azabicyclo[3.3.1]nonan-9-yl)picolinamide hydrochloride] the value was > 5 nM; for `COC1(c2ccnc(C(N)=O)c2)C2CCCC1CN(CC1(F)CCOCC1)C2` [Compound 15, 4-((1R,5S,9r)-34(4-fluorotetrahydro-2H-pyran-4-yl)methyl)-9-methoxy-3-azabicyclo[3.3.1]nonan-9-yl)picolinamide hydrochloride], > 5 nM; for `COC1(c2cccc(C(N)=O)c2)C2CCCC1CN(CC(F)(F)F)C2` [Compound 32, 3-((1R,5S,9r)-9-methoxy-3-(2,2,2-trifluoroethyl)-3-azabicyclo[3.3.1]nonan-9-yl)benzamide hydrochloride], > 5 nM.
As to `COC1(c2cccc(C(N)=O)c2)C2CCCC1CN(C(C)C)C2` [Compound 25, 3-((1R,5S,9r)-3-isopropyl-9-methoxy-3-azabicyclo[3.3.1]nonan-9-yl)benzamide hydrochloride], at μ-receptor, the Ki is < 1 nM.
For the compound `COC1(c2cc(O)cc(C(N)=O)c2)C2CCCC1CN(C)C2` [Compound 52, 3-hydroxy-5-((1R,5S,9r)-9-methoxy-3-methyl-3-azabicyclo[3.3.1]nonan-9-yl)benzamide hydrochloride], the Ki on μ-receptor is > 5 nM.
The same measure, in the same setting: as for `COC1(c2ccc(C(N)=O)cc2)C2CCCC1CN(CC1CC1)C2` [Compound 31, 4-((1R,5S,9r)-3-(cyclopropylmethyl)-9-methoxy-3-azabicyclo[3.3.1]nonan-9-yl)benzamide hydrochloride], the figure is > 5 nM; as for `COC1(c2ccnc(C(N)=O)c2)C2CCCC1CN(C1CN(C(C)=O)C1)C2` [Compound 84, 4-((1R,5S,9r)-3-(1-acetylazetidin-3-yl)-9-methoxy-3-azabicyclo[3.3.1]nonan-9-yl)picolinamide hydrochloride], > 5 nM; as for `COC1(c2ccnc(C(N)=O)c2)C2CCCC1CN(CCN1CCOC1=O)C2` [Compound 80, 4-((1R,5S,9r)-9-methoxy-3-(2-(2-oxooxazolidin-3-yl)ethyl)-3-azabicyclo[3.3.1]nonan-9-yl)picolinamide hydrochloride], > 5 nM.
On the same count and under the same terms, as for `COC1(c2cc(C(N)=O)cs2)C2CCCC1CN(CC1CC1)C2` [Compound 59, 5-((1R,5S,9r)-3-(cyclopropylmethyl)-9-methoxy-3-azabicyclo[3.3.1]nonan-9-yl)thiophene-3-carboxamide hydrochloride], the figure is 1 to 5 nM.
Still for that read-out and setting: for `COC1(c2cncc(C(N)=O)c2)C2CCCC1CN(CC1CC1)C2` [Compound 28, 5-((1R,5S,9r)-3-(cyclopropylmethyl)-9-methoxy-3-azabicyclo[3.3.1]nonan-9-yl)nicotinamide hydrochloride] the value was > 5 nM; for `COC1(c2cccc(C(N)=O)n2)C2CCCC1CN(C)C2` [Compound 33, 6-((1R,5S,9r)-9-methoxy-3-methyl-3-azabicyclo[3.3.1]nonan-9-yl)picolinamide hydrochloride], > 5 nM.
